Where two headings read alike, the source gives them in different places.
Legend:
[1] = rat, in vivo, po
Description: (§1) The sodium ampicillin and the talampicillin hydrochloride have been administered in aqueous solution; the other talampicillin salts have been administered in aqueous suspension.
(§2) At 0.5, 1,2,4 and 6 hours after the administration the animals were sacrified and their blood was taken from the portal vein.

[2] = white powder
[3] = cited from earlier work
[4] = in vivo; settings: rat, po, 100 mg/kg
Description: as §1, §2

mcg/ml ampicillin, average ± standard error ([1]; 30 min)	mcg/ml ampicillin, average ± standard error ([1]; 60 min)	mcg/ml ampicillin, average ± standard error ([1]; 120 min)	mcg/ml ampicillin, average ± standard error ([1]; 240 min)	mcg/ml ampicillin, average ± standard error ([1]; 360 min)	SMILES	further results
14.8 ± 3.4 µg/mL	6.1 ± 1.8 µg/mL	2.7 ± 0.2 µg/mL	1.9 ± 0.6 µg/mL	1.1 ± 0.1 µg/mL	CC1(C)S[C@@H]2[C@H](NC(=O)[C@H](N)c3ccccc3)C(=O)N2[C@H]1C(=O)OC1OC(=O)c2ccccc21 (some centres unmarked) [talampicillin napsylate, naphthalene 2-sulphonate of talampicillin]	
23.4 ± 2.4 µg/mL	10.2 ± 0.9 µg/mL	3.8 ± 1.1 µg/mL	1.7 ± 0.4 µg/mL	1.6 ± 1 µg/mL	CC1(C)S[C@@H]2[C@H](NC(=O)[C@H](N)c3ccccc3)C(=O)N2[C@H]1C(=O)OC1OC(=O)c2ccccc21 (single isomer, unassigned) [talampicillin 2-methoxyphenoxyacetate, 2-methoxyphenoxyacetate of the phthalidyl ester of the 6-[D(-)-α-aminophenylacetamido]penicillanic acid]	storage [2]: do not show any problem of storage; SBC [1]: 30
					CC1(C)S[C@@H]2[C@H](NC(=O)[C@H](N)c3ccccc3)C(=O)N2[C@H]1C(=O)OC1OC(=O)c2ccccc21 (single isomer, unassigned) [talampicillin, phtahlidyl ester of the 6-[D(-)-α-aminophenylacetamido]penicillanic acid]	blood levels of the parent ampicillin (in words) ([3]; in vivo, po): very high blood levels of the parent ampicillin; absorption (in words) ([3]; oral route, animals and man): well absorbed when administered by oral route in animals and in man
					CC1(C)S[C@@H]2[C@H](NC(=O)[C@H](N)c3ccccc3)C(=O)N2[C@H]1C(=O)O [sodium ampicillin, 6-[D(-)-α-aminophenylacetamido]penicillanic acid]	AUC at 6 h [4]: 10700 ng·h/mL; concentration at 0.5 h [4]: 6400 ng/mL; concentration at 1 h [4]: 4600 ng/mL; concentration at 2 h [4]: 1400 ng/mL; concentration at 4 h [4]: 800 ng/mL; concentration at 6 h [4]: 200 ng/mL
